This note sets out measurements from ChEMBL document CHEMBL1833931, “Simple synthetic toll-like receptor 2 ligands” (Bioorg Med Chem Lett, 2011).

This assay concerns the target Toll-like receptor 2 (Homo sapiens) (UniProt O60603). Put plainly: Agonist activity at TLR2 expressed in HEK293 cells co-expressing pNF-kappaB-Luc Cis assessed as NF-kappaB activation at 100 nM by luciferase reporter gene assay. The class given is functional, cell-based. (Reporter assays use an easily measured gene product as a stand-in for the process of interest.)

The structures appear in SMILES notation. Activity calls are given as the source filed them. The calls are words filed in the database; no cut-off is given here.

Chain of Toll-like receptor 2 (Homo sapiens) (O60603 whole entry): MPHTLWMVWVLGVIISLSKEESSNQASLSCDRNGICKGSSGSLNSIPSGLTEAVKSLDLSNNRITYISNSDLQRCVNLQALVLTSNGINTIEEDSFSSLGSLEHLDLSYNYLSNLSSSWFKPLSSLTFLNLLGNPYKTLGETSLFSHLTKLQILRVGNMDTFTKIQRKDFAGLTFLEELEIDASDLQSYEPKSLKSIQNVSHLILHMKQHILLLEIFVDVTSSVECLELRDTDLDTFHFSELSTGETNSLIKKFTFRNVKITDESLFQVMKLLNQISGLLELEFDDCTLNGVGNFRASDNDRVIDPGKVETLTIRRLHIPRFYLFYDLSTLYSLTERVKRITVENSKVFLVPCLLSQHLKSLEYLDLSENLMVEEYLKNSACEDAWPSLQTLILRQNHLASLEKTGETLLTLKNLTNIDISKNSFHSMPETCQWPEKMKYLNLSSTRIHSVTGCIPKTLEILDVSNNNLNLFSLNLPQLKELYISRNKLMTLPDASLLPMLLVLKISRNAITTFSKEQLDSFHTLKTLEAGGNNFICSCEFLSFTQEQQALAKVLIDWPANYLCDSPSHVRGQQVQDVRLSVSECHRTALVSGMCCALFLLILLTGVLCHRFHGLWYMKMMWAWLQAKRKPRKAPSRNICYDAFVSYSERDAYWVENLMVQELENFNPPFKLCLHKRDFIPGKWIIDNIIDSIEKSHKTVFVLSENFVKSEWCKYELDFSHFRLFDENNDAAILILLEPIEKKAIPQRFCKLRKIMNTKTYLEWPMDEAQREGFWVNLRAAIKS

For the molecule `CCCCCCCCCCCCCCCC(=O)NC(CO)CCCCCCCCCCCCCC` (configuration not stated), the result was Active. `CCCCCCCCCCCCCCCC(=O)NC(CCCCCCCCCCCCCC)C(=O)O` (configuration not stated): the result was Active.
